According to EPA's ToxRefDB 2:

Tests used:
[1] = test system: rat; details: Sub-acute repeat dose toxicity, wistar, Oral, Gavage/Intubation, dose end: 33 day, group: systemic
[2] = test system: primate; details: Subchronic oral toxicity in nonrodent, macaque, Gavage/Intubation, dose end: 13 week
[3] = test system: rat; details: Combined chronic toxicity/carcinogenicity; wistar; Oral; Gavage/Intubation; dose end: 104 week; group: systemic; systemic / in life observation / mortality / mortality + systemic / pathology microscopic / intestine large / [other] + systemic / pathology…
[4] = test system: mouse; details: Combined chronic toxicity/carcinogenicity, cd1, Oral, Gavage/Intubation, dose end: 104 week, group: systemic
[5] = test system: rat; details: Chronic toxicity; wistar; Oral; Gavage/Intubation; dose end: 27 week; group: systemic; systemic / clinical chemistry / bile acids / bile acids + systemic / clinical chemistry / cholesterol / cholesterol + systemic / clinical …
[6] = test system: primate; details: Sub-acute repeat dose toxicity; Oral; Gavage/Intubation; dose end: 4 day; group: systemic; systemic / in life observation / clinical signs / ataxia + systemic / in life observation / clinical signs / emesis + systemic / in life …
[7] = test system: rat; details: Sub-acute repeat dose toxicity; Oral; Gavage/Intubation; dose end: 10 day; group: systemic; systemic / hematology / erythrocyte (rbc) count differential / erythrocyte (rbc) + systemic / hematology / hematocrit (hct) / hematocrit (…
[8] = test system: primate; details: Sub-acute repeat dose toxicity; Oral; Gavage/Intubation; dose end: 10 day; group: systemic; systemic / clinical chemistry / alanine aminotransferase (alt/sgpt) / alanine aminotransferase (alt/sgpt) + systemic / clinical chemistry / …
[9] = test system: primate; details: Sub-acute repeat dose toxicity, Oral, Gavage/Intubation, dose end: 30 day, group: systemic
[10] = test system: rat; details: Sub-acute repeat dose toxicity, Oral, Gavage/Intubation, dose end: 30 day, group: systemic
[11] = test system: dog; details: Chronic toxicity; beagle; Oral; Feed; dose end: 107 week; group: systemic; systemic / clinical chemistry / [other] / [other] + systemic / clinical chemistry / alanine aminotransferase (alt/sgpt) / alanine …
[12] = test system: rat; details: Combined chronic toxicity/carcinogenicity, wistar, Oral, Feed, dose end: 24 month, group: systemic
[13] = test system: rat; details: Subchronic oral toxicity in rodents, other, Feed, dose end: 90 day, group: systemic, systemic / in life observation / body weight / body weight gain + systemic / organ weight / kidney / nos + systemic / organ weight / liver…
[14] = test system: rat; details: Multigenerational reproductive toxicity study, sprague dawley, Oral, Feed, dose end: 2 generation
[15] = test system: rat; details: Prenatal developmental toxicity study, wistar, Oral, Gavage/Intubation, dose end: 20 GD
[16] = test system: dog; details: Subchronic oral toxicity in nonrodent, beagle, Feed, dose end: 90 day, group: systemic, systemic / clinical chemistry / alanine aminotransferase (alt/sgpt) / alanine aminotransferase (alt/sgpt) + systemic / clinical chemistry / …
[17] = test system: mouse; details: Carcinogenicity; cd1; Oral; Feed; dose end: 80 week; group: systemic; systemic / pathology microscopic / liver / hypertrophy + systemic / pathology microscopic / liver / infiltration cellular + systemic / …
[18] = test system: mouse; details: Carcinogenicity; b6c3f1; Oral; Feed; dose end: 80 week; group: systemic; systemic / pathology microscopic / liver / carcinoma
[19] = test system: rat; details: Carcinogenicity; other; Oral; Feed; dose end: 80 week; group: systemic; systemic / in life observation / body weight / body weight + systemic / in life observation / clinical signs / [other] + systemic / in life …
[20] = test system: primate; details: Sub-acute repeat dose toxicity; Oral; Gavage/Intubation; dose end: 15 day; group: systemic; systemic / in life observation / clinical signs / emesis
[21] = test system: dog; details: Sub-acute repeat dose toxicity, beagle, Oral, Gavage/Intubation, dose end: 10 day, group: systemic
[22] = test system: rat; details: Sub-acute repeat dose toxicity, sprague dawley, Oral, Gavage/Intubation, dose end: 14 day, group: systemic
[23] = test system: primate; details: Sub-acute repeat dose toxicity; Oral; Gavage/Intubation; dose end: 20 day; group: systemic; systemic / in life observation / clinical signs / emesis
[24] = test system: rat; details: Sub-acute repeat dose toxicity, sprague dawley, Oral, Gavage/Intubation, dose end: 14 day, group: systemic; remark: listed apart in the source
[25] = test system: primate; details: Sub-acute repeat dose toxicity, Oral, Gavage/Intubation, dose end: 14 day, group: systemic
[26] = systemic / clinical chemistry / albumin / albumin + systemic / clinical chemistry / chloride / chloride + systemic / clinical chemistry / …
[27] = systemic / clinical chemistry / potassium / potassium + systemic / clinical chemistry / triglycerides / triglycerides + systemic / organ …
[28] = group: maternal, reproductive / reproductive performance / estrous cycle / abnormal
[29] = group: systemic, systemic / clinical chemistry / gamma glutamyl transferase (ggt) / gamma glutamyl transferase (ggt) + systemic / clinical chemistry / …
[30] = systemic / pathology microscopic / gallbladder / adenoma + systemic / pathology microscopic / gallbladder / hemangioma + systemic / …
[31] = systemic / pathology microscopic / gallbladder / adenoma + systemic / pathology microscopic / gallbladder / hyperplasia + systemic / …
[32] = systemic / clinical chemistry / cytochrome p450, nos / cytochrome p450, nos + systemic / hematology / blood clotting / blood clotting - …
[33] = systemic / clinical chemistry / cholesterol / cholesterol + systemic / clinical chemistry / cytochrome p450, nos / cytochrome p450, nos + …
[34] = systemic / clinical chemistry / urea nitrogen / urea nitrogen + systemic / hematology / neutrophils / neutrophils
[35] = systemic / in life observation / body weight / body weight gain + systemic / pathology microscopic / brain / vacuolization + systemic / …
[36] = systemic / pathology microscopic / spleen / hemosiderosis + systemic / pathology microscopic / uterus / adenocarcinoma
[37] = group: offspring, systemic / in life observation / body weight / offspring (pup) weight + systemic / in life observation / body weight / offspring (pup) …
[38] = group: parental, systemic / organ weight / kidney / absolute + systemic / organ weight / kidney / relative to body weight + systemic / organ weight / liver…
[39] = group: developmental, developmental / developmental malformation / bone / short supernumerary
[40] = group: developmental, developmental / developmental malformation / bone / short supernumerary + systemic / in life observation / body weight / fetal weight
[41] = group: maternal, systemic / in life observation / body weight / body weight gain + systemic / in life observation / food consumption / food consumption
[42] = systemic / in life observation / clinical signs / emesis
[43] = systemic / in life observation / clinical signs / emesis + systemic / in life observation / clinical signs / abnormal feces
[44] = systemic / clinical chemistry / albumin / albumin + systemic / clinical chemistry / cholesterol / cholesterol + systemic / hematology / …
[45] = systemic / clinical chemistry / albumin / albumin + systemic / clinical chemistry / globulins / globulins + systemic / clinical chemistry / …
[46] = systemic / in life observation / clinical signs / salivation
[47] = systemic / clinical chemistry / alanine aminotransferase (alt/sgpt) / alanine aminotransferase (alt/sgpt) + systemic / clinical chemistry / …
[48] = systemic / in life observation / clinical signs / emesis + systemic / in life observation / clinical signs / reduced activity

## Cc1oc(-c2ccccc2)nc1CCOc1ccc(C[C@H](Nc2ccccc2C(=O)c2ccccc2)C(=O)O)cc1 [Farglitazar]
[1]; [26]
  LOAEL: > 500 mg/kg/day
  NOAEL: ≥ 500 mg/kg/day
[1]; [27]
  LEL: 0.5 mg/kg/day
  NEL: < 0.5 mg/kg/day
[2]; [28]
  LEL: 50 mg/kg/day
  LOAEL: > 50 mg/kg/day
  NEL: 5 mg/kg/day
  NOAEL: ≥ 50 mg/kg/day
[2]; [29]
  LEL: 0.5 mg/kg/day
  LOAEL: > 50 mg/kg/day
  NEL: < 0.5 mg/kg/day
  NOAEL: ≥ 50 mg/kg/day
[3]
  LEL: 0.5 mg/kg/day
  LOAEL: > 20 mg/kg/day
  NEL: < 0.5 mg/kg/day
  NOAEL: ≥ 20 mg/kg/day
[4]; [30]
  LOAEL: > 50 mg/kg/day
  NOAEL: ≥ 50 mg/kg/day
[4]; [31]
  LEL: 1 mg/kg/day
  NEL: < 1 mg/kg/day
[5]
  LEL: 0.5 mg/kg/day
  LOAEL: > 50 mg/kg/day
  NEL: < 0.5 mg/kg/day
  NOAEL: ≥ 50 mg/kg/day

## CC(C)(C)c1nnc2ccc(-c3ocnc3-c3cc(F)c(F)cc3F)cn12
[6]
  LEL: 100 mg/kg/day
  LOAEL: > 100 mg/kg/day
  NEL: < 100 mg/kg/day
  NOAEL: ≥ 100 mg/kg/day
[7]
  LEL: 10 mg/kg/day
  LOAEL: > 100 mg/kg/day
  NEL: < 10 mg/kg/day
  NOAEL: ≥ 100 mg/kg/day
[8]
  LEL: 10 mg/kg/day
  LOAEL: > 100 mg/kg/day
  NEL: < 10 mg/kg/day
  NOAEL: ≥ 100 mg/kg/day
[9]; [32]
  LOAEL: > 100 mg/kg/day
  NEL: 3 mg/kg/day
  NOAEL: ≥ 100 mg/kg/day
[9]; systemic / hematology / fibrinogen / fibrinogen
  LEL: 10 mg/kg/day
[10]; [33]
  LOAEL: > 100 mg/kg/day
  NOAEL: ≥ 100 mg/kg/day
[10]; [34]
  LEL: 3 mg/kg/day
  NEL: < 3 mg/kg/day

## Nc1c(Cl)cc([N+](=O)[O-])cc1Cl [Dicloran]
[11]
  LEL: 75 mg/kg/day
  LOAEL: 75 mg/kg/day
  NEL: 2.5 mg/kg/day
  NOAEL: 2.5 mg/kg/day
[12]; [35]
  LOAEL: 71 mg/kg/day
  NOAEL: 11.3 mg/kg/day
[12]; [36]
  LEL: 3.7 mg/kg/day
  NEL: < 3.7 mg/kg/day
[13]
  LEL: 150 mg/kg/day
  LOAEL: 150 mg/kg/day
  NEL: 5 mg/kg/day
  NOAEL: 5 mg/kg/day
[14]; [37]
  LEL: 87 mg/kg/day
  LOAEL: 87 mg/kg/day
  NEL: 16.9 mg/kg/day
  NOAEL: 16.9 mg/kg/day
[14]; group: parental, systemic / in life observation / clinical signs / discharge on cageboard
  NEL: 16.9 mg/kg/day
[14]; [38]
  LEL: 87 mg/kg/day
  LOAEL: 87 mg/kg/day
  NOAEL: 16.9 mg/kg/day
[15]; [39]
  LEL: 50 mg/kg/day
  NEL: < 50 mg/kg/day
[15]; [40]
  LOAEL: 100 mg/kg/day
  NOAEL: 50 mg/kg/day
[15]; [41]
  LEL: 50 mg/kg/day
  LOAEL: 50 mg/kg/day
  NEL: < 50 mg/kg/day
  NOAEL: < 50 mg/kg/day
[16]
  LEL: 75 mg/kg/day
  LOAEL: 75 mg/kg/day
  NEL: 2.5 mg/kg/day
  NOAEL: 2.5 mg/kg/day
[17]
  LEL: 86.5 mg/kg/day
  LOAEL: 86.5 mg/kg/day
  NEL: 24.5 mg/kg/day
  NOAEL: 24.5 mg/kg/day

## Nc1cc(Cl)cc(C(=O)O)c1Cl [Chloramben]
[18]
  LEL: 1500 mg/kg/day
  LOAEL: > 3000 mg/kg/day
  NEL: < 1500 mg/kg/day
  NOAEL: ≥ 3000 mg/kg/day
[19]
  LEL: 1000 mg/kg/day
  LOAEL: > 1000 mg/kg/day
  NEL: 500 mg/kg/day
  NOAEL: ≥ 1000 mg/kg/day

## CC(C)(O)c1ccc(CNC(=O)c2cccnc2Oc2ccc3nonc3c2)cc1
[20]
  LEL: 5 mg/kg/day
  LOAEL: > 50 mg/kg/day
  NEL: 1 mg/kg/day
  NOAEL: ≥ 50 mg/kg/day
[21]; [42]
  LEL: 10 mg/kg/day
  NEL: < 10 mg/kg/day
[21]; [43]
  LOAEL: > 250 mg/kg/day
  NOAEL: ≥ 250 mg/kg/day
[22]; [44]
  LOAEL: > 125 mg/kg/day
  NEL: 5 mg/kg/day
  NOAEL: ≥ 125 mg/kg/day
[22]; systemic / pathology microscopic / mesentery / inflammation
  LEL: 25 mg/kg/day
[23]
  LEL: 20 mg/kg/day
  LOAEL: > 300 mg/kg/day
  NEL: < 20 mg/kg/day
  NOAEL: ≥ 300 mg/kg/day
[24]; [45]
  LOAEL: > 160 mg/kg/day
  NOAEL: ≥ 160 mg/kg/day
[24]; [46]
  LEL: 5 mg/kg/day
  NEL: < 5 mg/kg/day
[25]; [47]
  LOAEL: > 1000 mg/kg/day
  NOAEL: ≥ 1000 mg/kg/day
[25]; [48]
  LEL: 20 mg/kg/day
  NEL: < 20 mg/kg/day
